Reference: patent US20030236212A1, “Functionalized long chain derivatives as acyl coenzyme-A mimics, compositions thereof, and methods of cholesterol management and related uses” (priority 2002, published 2003)
Where two headings read alike, the source gives them in different places.

Assays:
obese female Zucker rats = experiment: Oral daily treatment of obese female Zucker rats for 14 days (body weight, serum lipids, glucose, insulin); type: in vivo, rat; set-up: HDL-C / Glucose / Insulin / NEFA / BHA / TG / TC / Non HDL-C: unit not given here; settings: for change in vivo at 10 mg/kg/day / change in vivo at 10 mg/kg / change in vivo at 30 mg/kg/day / change in vivo at 30 mg/kg / change in vivo at 100 mg/kg/day / change in vivo at 100 mg/kg: Rattus norvegicus, 336 h, oral daily, fourteen days; for change in vivo at 10 mg/kg/day / change in vivo at 30 mg/kg/day / change in vivo at 100 mg/kg/day: read-out: % wt. gain; for change in vivo at 10 mg/kg/day / change in vivo at 10 mg/kg: 10 mg/kg/day; for change in vivo at 30 mg/kg/day / change in vivo at 30 mg/kg: 30 mg/kg/day; for change in vivo at 100 mg/kg/day / change in vivo at 100 mg/kg: 100 mg/kg/day
Method: The dosing vehicle was administered to control animals in parallel experiments.
Body weight was determined daily prior to dosing. Animals were allowed free access to rodent chow and water throughout the study. Blood glucose was determined after a 6-hour fast in the afternoon without anesthesia from a tail vein. Serum was also prepared from a blood sample subsequently obtained from the orbital venous plexus (with O2/CO2 anesthesia) prior to and after one week treatment and used lipid and insulin determinations. At two weeks, blood glucose was again determined after a 6-hour fast without anesthesia from a tail vein. Soon thereafter, animals were sacrificed by CO2 inhalation in the afternoon and cardiac blood serum was collected and assessed for various lipids and insulin.

primary rat hepatocytes = experiment: Synthesis of total lipids (14C-acetate labeling) in primary rat hepatocytes; type: cell-based; settings: rat hepatocyte cells, 14C-acetate 4 hr, vs vehicle control
Method: A male Sprague-Dawley rate was anesthetized by administration of sodium pentobarbitol by intraperitoneal at 80 mg/kg. In situ perfusion of the liver was performed as follows. The abdomen of the animal was opened, the portal vein canulated, and the liver perfused with WOSH solution (149 mM NaCl, 9.2 mM Na HEPES, 1.7 mM Fructose, 0.5 mM EGTA, 0.029 mM Phenol red, 10 U/ml heparin, pH 7.5) at a flow rate of 30 ml/min for 6 minutes. To digest the liver, DSC solution (6.7 mM KCl, 143 mM NaCl, 9.2 mM Na HEPES, 5 mM CaCl2-2H2O, 1.7 mM Fructose, 0.029 mM Phenol red, 0.2% BSA, 100 U/ml collagenase Type 1,160 BAEE/ml trypsin inhibitor, pH 7.5) was perfused through the liver at a flow rate of 30 ml/min for 6 minutes at a temperature of 37° C. After digestion, cells were dispersed in a solution of DMEM-(DMEM containing 2 mM GlutMax-1, 0.2% BSA, 5% FBS, 12 nM insulin, 1.2 μM hydrocortisone) to stop the digestion process. The crude cell suspension was filtered through three layers of stainless steel mesh with pore sizes of 250, 106, and 75 μm respectively. Filtered cells were centrifuged at 50×g for two minutes and the supernatant discarded. The resulting cell pellet was resuspended in DMEM and centrifuged again. This final cell pellet was resuspended in DMEM+HS solution (DMEM containing 2 mM GlutMax-1, 20 mM delta-aminolevulinic acid, 17.4 mM MEM nonessential amino acids, 20% FBS, 12 nM insulin, 1.2 μM hydrocortisone) and plated to form monolayer cultures at a density of 100×10^3 cells/cm^2 on collagen coated culture dishes.
To test the effect of an illustrative compound of the invention on synthesis rates of total lipids, the monolayer cultures were exposed to 1, 3, 10, 30, 100, or 300 μM of Compound A or 10 μM of Compound 1 in DMEM+containing 1 μCi/ml 14C-acetate, D-glucose, hepes, glutamine, leucine, alanine, lactate, pyruvate, non-essential amino acids, BSA, and gentamicine. Control cells were exposed to the same media lacking lovastatin or the test compounds. All cells were exposed to 0.1% DMSO. Metabolic labeling with ^14C-acetate continued for 4 hr at 37° C. After labeling, cells were washed twice with 1 mL of PBS followed by addition of scintallant (Microscent E) and counted on Topcount®.

[1] = obese female Zucker rats, oral gavage daily 14 days, 100 mg/kg
[2] = obese female Zucker rats, oral, 14 days, 100 mg/kg/day (Table 1)
[3] = obese female Zucker rats, read-out: BHA, Percent Change from Pre-treatment
[4] = obese female Zucker rats, read-out: Glucose, Percent Change from Pre-treatment
[5] = obese female Zucker rats, read-out: HDL-C, Percent Change from Pre-treatment
[6] = obese female Zucker rats, read-out: Insulin, Percent Change from Pre-treatment
[7] = obese female Zucker rats, read-out: NEFA, Percent Change from Pre-treatment
[8] = obese female Zucker rats, read-out: Non HDL-C, Percent Change from Pre-treatment
[9] = obese female Zucker rats, read-out: TC, Percent Change from Pre-treatment
[10] = obese female Zucker rats, read-out: TG, Percent Change from Pre-treatment

melting point	Compound	change in vivo at 10 mg/kg/day (obese female Zucker rats; obese female Zucker rats)	change in vivo at 10 mg/kg (obese female Zucker rats; [3])	change in vivo at 10 mg/kg (obese female Zucker rats; [4])	change in vivo at 10 mg/kg (obese female Zucker rats; [5])	change in vivo at 10 mg/kg (obese female Zucker rats; [6])	change in vivo at 10 mg/kg (obese female Zucker rats; [7])	change in vivo at 10 mg/kg (obese female Zucker rats; [8])	change in vivo at 10 mg/kg (obese female Zucker rats; [9])	change in vivo at 10 mg/kg (obese female Zucker rats; [10])	change in vivo at 30 mg/kg/day (obese female Zucker rats; obese female Zucker rats)	change in vivo at 30 mg/kg (obese female Zucker rats; [3])	change in vivo at 30 mg/kg (obese female Zucker rats; [4])	change in vivo at 30 mg/kg (obese female Zucker rats; [5])	change in vivo at 30 mg/kg (obese female Zucker rats; [6])	change in vivo at 30 mg/kg (obese female Zucker rats; [7])	change in vivo at 30 mg/kg (obese female Zucker rats; [8])	change in vivo at 30 mg/kg (obese female Zucker rats; [9])	change in vivo at 30 mg/kg (obese female Zucker rats; [10])	change in vivo at 100 mg/kg/day (obese female Zucker rats; obese female Zucker rats)	further results
185 to 186 °C	CC(C)(CCCCOCCCCC(C)(C)COP(=O)(O)O)COP(=O)(O)O.N.N.N.N [Compound A]	–	–	–	–	–	–	–	–	–	–	–	–	–	–	–	–	–	–	–	serum insulin relative to pretreatment (obese female Zucker rats; fasted obese female Zucker rats, two weeks of treatment, 100 mg/kg): rose slightly; liver to body weight (obese female Zucker rats; [1]): increased; serum non-esterified fatty acids (obese female Zucker rats; [1]): reduced; serum total cholesterol (obese female Zucker rats; [1]): elevated; serum triglycerides (obese female Zucker rats; [1]): reduced; weight gain, percent of initial weight after two weeks (obese female Zucker rats; [1]): 1%; β-hydroxy butyrate levels (obese female Zucker rats; [1]): elevated; BHA (obese female Zucker rats; [2]): 1 ± 0.5; Glucose (obese female Zucker rats; [2]): 5.6 ± 4.2; HDL-C (obese female Zucker rats; [2]): 186.7 ± 51.5; Insulin (obese female Zucker rats; [2]): 10.6 ± 26.3; NEFA (obese female Zucker rats; [2]): 0.059 ± 0.003; Non HDL-C (obese female Zucker rats; [2]): −30.6 ± 15.4; TC (obese female Zucker rats; [2]): −85.7 ± 1.2; TG (obese female Zucker rats; [2]): 833.8 ± 209.9; ratio of non-HDL cholesterol to HDL cholesterol content (obese female Zucker rats; obese female Zucker rats, relative to control and reference compound-treated animals, 100 mg/kg): improved; HDL-cholesterol elevation (obese female Zucker rats; obese female Zucker rats, two-week treatment, 100 mg/kg): 9 fold; body weight increases (obese female Zucker rats; obese female Zucker rats, versus reference compound-treated animals, 100 mg/kg): did not cause the body weight increases; reduction of rates of total lipid synthesis (primary rat hepatocytes; 3 μM): at least 97%; reduction of rates of total lipid synthesis (primary rat hepatocytes; 10 μM): at least 97%
191 to 193 °C	CC(C)(CCCCC(=O)CCCCC(C)(C)COP(=O)(O)O)COP(=O)(O)O.N.N [Compound D, Phosphoric Acid mono-(2,2,12,12-tetramethyl-7-oxo-13-phosphonooxytridecyl) ester, diammonium salt]	12%	123%	-5%	5%	4%	-13%	25%	8%	11%	9%	271%	-4%	28%	2%	-25%	22%	21%	-12%	8%	change in vivo at 100 mg/kg (obese female Zucker rats; [3]): 814%; change in vivo at 100 mg/kg (obese female Zucker rats; [4]): -3%; change in vivo at 100 mg/kg (obese female Zucker rats; [5]): 57%; change in vivo at 100 mg/kg (obese female Zucker rats; [6]): 14%; change in vivo at 100 mg/kg (obese female Zucker rats; [7]): -22%; change in vivo at 100 mg/kg (obese female Zucker rats; [8]): 71%; change in vivo at 100 mg/kg (obese female Zucker rats; [9]): 55%; change in vivo at 100 mg/kg (obese female Zucker rats; [10]): -1%
187 to 189 °C	CC(C)(CCCCCC(=O)CCCCCC(C)(C)COP(=O)(O)O)COP(=O)(O)O.N.N [Compound E, Phosphoric Acid mono-(2,2,14,14-tetramethyl-8-oxo-15-phosphonooxy-pentadecyl) Ester, Diammonium Salt]	11%	140%	-6%	129%	25%	-5%	6%	3%	39%	10%	73%	-1%	174%	-12%	-28%	51%	126%	-2%	4%	change in vivo at 100 mg/kg (obese female Zucker rats; [3]): 134%; change in vivo at 100 mg/kg (obese female Zucker rats; [4]): -4%; change in vivo at 100 mg/kg (obese female Zucker rats; [5]): 246%; change in vivo at 100 mg/kg (obese female Zucker rats; [6]): -15%; change in vivo at 100 mg/kg (obese female Zucker rats; [7]): -40%; change in vivo at 100 mg/kg (obese female Zucker rats; [8]): 20%; change in vivo at 100 mg/kg (obese female Zucker rats; [9]): 161%; change in vivo at 100 mg/kg (obese female Zucker rats; [10]): -51%
